Results: ChEMBL document CHEMBL2057125, “Structural simplification of bioactive natural products with multicomponent synthesis. 4. 4H-pyrano-[2,3-b]naphthoquinones with anticancer activity” (2012)

Key:
Jurkat [1] = assay: Antiproliferative activity against human Jurkat cells assessed as reduction in cell viability after 48 hrs by MTT assay; type: functional
[2] = Antiproliferative activity against human MCF7/AZ cells assessed as reduction in cell viability after 48 hrs by MTT assay; type: functional
HeLa = assay: Antiproliferative activity against human HeLa cells assessed as reduction in cell viability after 48 hrs by MTT assay; type: functional
Jurkat [3] = assay: Induction of apoptosis in human Jurkat cells assessed as apoptotic cells at 50 uM after 24 hrs using annexin-V/Propidium iodide by flow cytometry; type: functional
[4] = Antiproliferative activity against human OE21 cells assessed as reduction in cell viability after 72 hrs by MTT assay; type: functional; settings: OE21, 72 h
LoVo = assay: Antiproliferative activity against human LoVo cells assessed as reduction in cell viability after 72 hrs by MTT assay; type: functional
SK-MEL-28 = assay: Antiproliferative activity against human SK-MEL-28 cells assessed as reduction in cell viability after 72 hrs by MTT assay; type: functional; settings: SK-MEL-28, 72 h
A549 = assay: Antiproliferative activity against human A549 cells assessed as reduction in cell viability after 72 hrs by MTT assay; type: functional; settings: A549, 72 h
PC-3 = assay: Antiproliferative activity against human PC3 cells assessed as reduction in cell viability after 72 hrs by MTT assay; type: functional; settings: PC-3, 72 h
[5] = Antiproliferative activity against human Hs683 cells assessed as reduction in cell viability after 72 hrs by MTT assay; type: functional; settings: Hs 683, 72 h
[6] = Antiproliferative activity against human U373 cells assessed as reduction in cell viability after 72 hrs by MTT assay; type: functional, U-373MG ATCC; settings: U373 MG

GI50 (Jurkat [1]) [µM]	GI50 (HeLa) [µM]	GI50 (LoVo) [µM]	GI50 (SK-MEL-28) [µM]	GI50 (A549) [µM]	GI50 (PC-3) [µM]	SMILES	GI50 [2] [µM]	Activity (Jurkat [3]) [%]	GI50 [4] [µM]	GI50 [5] [µM]	GI50 [6] [µM]
185	20.5					N#CC1=C(N)OC2=C(C(=O)c3ccccc3C2=O)C1c1ccccc1Cl (stereo not drawn)	19	6.3			
6.1	4.6	0.3	0.6	0.8	0.01	CC1(C)CCC2=C(O1)c1ccccc1C(=O)C2=O [LAPACHONE]	6	51	0.6	0.4	0.4
47.8	54.3					Cc1ccc(C2C(C#N)=C(N)OC3=C2C(=O)c2ccccc2C3=O)o1 (stereo not drawn)	51.6	57.8			
75	25	24.4	4.7	16.3	13	CC1(C)CCC2=C(O1)C(=O)c1ccccc1C2=O [ALPHA-LAPACHONE]	16.7	7.4	22.7	9	23.1
105	4.3					N#CC1=C(N)OC2=C(C(=O)c3ccccc3C2=O)C1c1ccc(OC(F)(F)F)cc1 (stereo not drawn)	7.1	13.5			
122	23.6					N#CC1=C(N)OC2=C(C(=O)c3ccccc3C2=O)C1c1ccc(-c2ccccc2)cc1 (stereo not drawn)	26	11.2			
23.9	14.5					N#CC1=C(N)OC2=C(C(=O)c3ccccc3C2=O)C1c1ccncc1 (stereo not drawn)	6	28.6			
85	30.6					N#CC1=C(N)OC2=C(C(=O)c3ccccc3C2=O)C1c1ccc(O)cc1 (stereo not drawn)	8.6	16.7			
332	119					N#CC1=C(N)OC2=C(C(=O)c3ccccc3C2=O)C1c1ccc(C(=O)O)cc1 (stereo not drawn)	94.4	4.1			
172	5.3	4.3	17.1	40.6	6.2	N#CC1=C(N)OC2=C(C(=O)c3ccccc3C2=O)C1c1c(Cl)cccc1Cl (stereo not drawn)	3.1	5.1	17.4	19.3	12.8
80.6	62.5					CC(C)c1ccc(C2C(C#N)=C(N)OC3=C2C(=O)c2ccccc2C3=O)cc1 (stereo not drawn)	34	2.9			
20	16.1					N#CC1=C(N)OC2=C(C(=O)c3ccccc3C2=O)C1c1cccc(Br)c1 (stereo not drawn)	28.6	48.4			
16.8	11.2					N#CC1=C(N)OC2=C(C(=O)c3ccccc3C2=O)C1c1ccccc1[N+](=O)[O-] (stereo not drawn)	8.3	25			
43.3	23.5					N#CC1=C(N)OC2=C(C(=O)c3ccccc3C2=O)C1c1ccccc1 (stereo not drawn)	18.5	16.7			
80.5	11.8					N#CC1=C(N)OC2=C(C(=O)c3ccccc3C2=O)C1c1ccc(C(F)(F)F)cc1 (stereo not drawn)	5.6	15.5			
38.3	30					N#CC1=C(N)OC2=C(C(=O)c3ccccc3C2=O)C1c1ccc(Br)cc1 (stereo not drawn)	22.8	40.1			
108	77.5					N#CC1=C(N)OC2=C(C(=O)c3ccccc3C2=O)C1c1cccc(Cl)c1 (stereo not drawn)	59.8	22			
19.1	9.1					N#CC1=C(N)OC2=C(C(=O)c3ccccc3C2=O)C1c1cccc([N+](=O)[O-])c1 (stereo not drawn)	10.8	33.6			
17.9	4	3.4	4.5	5	6.2	N#CC1=C(N)OC2=C(C(=O)c3ccccc3C2=O)C1c1cccc(Oc2ccccc2)c1 (stereo not drawn)	2.2	50	2.2	5	3.4
30.7	31.6					N#CC1=C(N)OC2=C(C(=O)c3ccccc3C2=O)C1c1ccccc1Br (stereo not drawn)	26.3	41.7			
52.3	34.4					N#CC1=C(N)OC2=C(C(=O)c3ccccc3C2=O)C1c1c(F)cccc1Cl (stereo not drawn)	8	21.3			
105	31.7					N#CC1=C(N)OC2=C(C(=O)c3ccccc3C2=O)C1c1ccc(Cl)cc1 (stereo not drawn)	24	23.8			
24.3	16.8					N#CC1=C(N)OC2=C(C(=O)c3ccccc3C2=O)C1c1ccc([N+](=O)[O-])cc1 (stereo not drawn)	9.8	23.1			
20.4	14.2					N#CC1=C(N)OC2=C(C(=O)c3ccccc3C2=O)C1c1cccnc1 (stereo not drawn)	3.4	20.8			
82.4	94					N#CC1=C(N)OC2=C(C(=O)c3ccccc3C2=O)C1c1cccs1 (stereo not drawn)	36.9	11.2			
